We go through seven compounds from US20240139185A1, “COMPOUNDS THAT PARTICIPATE IN COOPERATIVE BINDING AND USES THEREOF” (Revolution Medicines, Inc., priority 2018, published 2024).

For data set [1] the following is noted: 18-membered ring.
Another data set deals with T1, BRAF-GTP-KRASWT complex (Homo sapiens, UniProt P01116+P62937).
T1 construct: substitute His6-KRas WT-GTP (1-169) for His6-KRas G12C-GTP (1-169); 500 nM of tagless CypA (1-165)
Nature of the data set: KRAS-BRAF complex disruption TR-FRET with wild-type KRAS (G12C specificity). Format: biochemical. As to conditions: with CYPA. The protocol: (§1) In this example, TR-FRET was used to measure the compound-facilitated disruption of a KRAS-BRAF complex. A mixture of tagless Cyclophilin A, His6-KRAS G12C-GMP-PNP, and GST-BRAF RAS binding domain was added to a 384-well assay plate containing compounds of the invention and incubated for 3 hours. A mixture of Anti-His Eu-W1024 and anti-GST allophycocyanin was then added and the reaction was incubated for an additional 1.5 hours. TR-FRET signal was read on an EnVision microplate reader (Perkin Elmer, Ex 320 nm, Em 665/615 nm). Compounds that facilitate disruption of a KRAS_BRAF complex were identified as those eliciting a decrease in the TR-FRET ratio relative to DMSO control wells. To determine the presenter-dependence of the compound-mediated KRAS-BRAF complex disruption, Cyclophilin A was left out of the initial incubation (see Table 5). To determine G12C specificity of the compound-mediated KRAS-BRAF complex disruption, wild-type KRAS was used instead of G12C KRAS (see Table 5).
(§2) Reagents and Instrument • Tagless CYPA; 519 μM in PBS buffer, pH 7.4 • GST BRAF; 110 μM in PBS buffer, pH 7.4 • His6-KRASG12C-GMP-PNP; 50 μM in PBS buffer, pH 7.4 • His6-KRASWT-GMP-PNP; 40 μM in PBS buffer, pH 7.4 • Anti-His Eu-W1024 (LANCE® Eu-W1024; Perkin Elmer) • Anti-GST allophycocyanin (Anti-GST IgG conjugated to SureLight®-Allophycocyanin; Perkin Elmer; Product Number AD0059G) • Test compounds, 10 mM in 100% DMSO • EnVision (Perkin Elmer) • Combi MultiDrop liquid dispenser with 8-channel small volume cassette • 384-well ProxiPlate (black)
(§3) Experimental Protocol • 1. Use Mosquito to dispense 100 nL/well of compounds (varying concentration in […]) into 384-well black ProxiPlate to make assay-ready-plate (ARP). • 2. Make assay buffer containing 25 mM Hepes pH 7.3, 100 mM NaCl, 5 mM MgCl2, 0.05% BSA, and 0.002% Tween-20. • 3. Make PRE-MIX A: delivers final concentrations of 50 nM of His6-KRas G12C-GTP (1-169) and 500 nM of tagless CypA (1-165) in assay buffer. • a. […] Read on EnVision (Ex: 320 nm; Em1: 615 nm; Em2: 665 nm). • 8. […]

Data set [2] deals with T2, BRAF-GTP-KRAS-G12C complex (Homo sapiens, UniProt P01116, G12C).
T2 construct: 50 nM of His6-KRas G12C-GTP (1-169)
The experiment in a line: KRAS-BRAF complex disruption TR-FRET without CYPA (presenter dependence). Format: biochemical. The protocol: as §1, §2, §3

The next data set concerns the target T3, KRAS-G12C (Homo sapiens, UniProt P01116+P62937, G12C).
T3 construct: CypA 1-165 (final concentration 5 μM)
The experiment in a line: Percentage of crosslinking to KRAS-G12C in the presence of BME and CYPA (TOF-MS). Format: biochemical. The settings on record: 60 minute incubation; compound 2 μM, CypA 5 μM, G12C-GMPNP 0.5 μM, BME. On the procedure: • 1. 10×Incubation buffer: 125 mM HEPES pH 7.4, 750 mM NaCl, 10 mM MgCl2 • 2. 50 μM Protein A stock (CypA) in incubation buffer • 3. 5 μM Protein B (G12C-GMPNP) stock in incubation buffer • 4. 20 μM compound stock in 1×Incubation buffer with 10% DMSO • 5. 25 mM BME stock solution (prepared by diluting the BME stock in Milli Q water)
CypA 1-165 (final concentration 5 μM), test compound (final concentration 2 μM) and G12C-GMPNP (final concentration 0.5 μM) were incubated in the incubation buffer ([…]) for the requisite amount of time at room temperature. The samples were quenched with formic acid, final concentration 0.5%. 10 μL aliquots were injected to TOF-MS.
Sequence of Addition for a Final Incubation Volume of 50 μL • 1. 5 μL 10×incubation buffer • 2. 28 ul H2O • 3. 2 μL from 25 mM BME stock • 4. 5 μL CypA at 50 uM • 5. 5 μL from 5 μM G12C-GMPNP • 6. 5 μL compound from 20 μM compound stock
LC-MS is performed on an Agilent 6230 TOF-LC mass spectrometer equipped with an electrospray probe operated in positive ionization mode. 10 μL samples are injected on a Sepax Bio-C4, 300 Å, 2.1×100 mm column. The mobile phase is 0.1% (vol/vol) formic acid and 0.1% 1 mM ammonium formate in 95% water, 4.8% acetonitrile (A) and 0.1% (vol/vol) formic acid and 0.1% 1 mM ammonium formate in 95% acetonitrile and 4.8% water (B). The separation is performed by a 9 min total gradient consisting of 5 min linear gradient from 25% to 50% B, and a wash at 100% B for 1.25 min, all at a flow rate of 0.6 mL/min (see attached timetable below). Mass spectrometer source conditions were capillary voltage, 4,000 V; cone voltage, 120 V; source temperature, 275° C.; scan range, 100-2,000 a.m.u. with a cycle time of 1 s.
The observed mass is generated by averaging the major peak in the total ion current (TIC). The charge-state series of the species are deconvoluted using Agilent MassHunter Bioconfirm using maximum entropy setting (range is set to 17000-23000 Da). […]

The target of data set [3] is T4, BRAF-GTP-KRAS-G12C complex (Homo sapiens, UniProt P01116+P62937, G12C).
T4 construct: 50 nM of His6-KRas G12C-GTP (1-169); 500 nM of tagless CypA (1-165)
The experiment in a line: KRAS-BRAF complex disruption through competition with CYPA-compound by TR-FRET. As to conditions: biochemical BRAF-KRAS G12C-GTP disruption assay EC50, with CYPA. In outline:
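His6-KRAS G12C-GTP (1-169, 50 nM) with tagless CypA (1-165, 500 nM) was incubated with compound for 3 h at room temperature in pH 7.3 Hepes/NaCl/MgCl2 buffer containing GST-BRAF RBD. Anti-His Eu (10 nM) and anti-GST APC (50 nM) were then added for 1.5 h, and the 665/615 nm TR-FRET ratio was read. EC50 from 4-parameter fit; for specificity, wild-type KRAS replaced G12C, and CypA was omitted to test presenter dependence.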

The target of another data set is cyclophilin A (CYPA) (Homo sapiens, UniProt P62937). The experiment in a line: CYPA-compound binary complex formation by SPR. The settings on record: read-out: CYPA Binding Affinity. The essentials: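 CypA-Avi captured on a Biotin CAPture chip (4 μg/ml), reference flow cell subtracted. Compounds injected as 10-point 2-fold dilutions from 50 μM in HBS-P+ pH7.4 with 2% DMSO; 60 s association and 60 s dissociation, solvent-corrected. Affinity obtained by steady-state fitting.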

A further data set concerns pERK in H358 cells. Nature of the data set: pERK inhibition in H358 cells. Format: cell-based, human. The settings on record: 4 hours treatment, read-out: Cellular pERK inhibition. The essentials:
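Human lung cancer H358 cells in RPMI/10% FBS were exposed to compound or DMSO for 4 h. Fixed and permeabilized cells were stained overnight at 4 C with anti-phospho-ERK1/2 (Thr202/Tyr204). Near-infrared imaging read the pERK signal at 800 nm, with DRAQ5 at 700 nm.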

Like-named read-outs stand apart in the source and are kept apart here. Marks after values point to notes of the source that are not given here.

`CC(C)[Si](Oc1cc2cc(c1)-c1ccc3c(Br)cn(c3c1)C[C@H](C)COC(=O)[C@@H]1CCCN(N1)C(=O)[C@@H](NC(=O)OC(C)(C)C)C2)(C(C)C)C(C)C`: in data set [1] (from CC(C)[Si](Oc1cc(C[C@H](NC(=O)OC(C)(C)C)C(=O)N2CCC[C@@H](C(=O)O)N2)cc(-c2ccc3c(Br)cn(C[C@H](C)CO)c3c2)c1)(C(C)C)C(C)C, ester bond, EDCI/HOBt/DIEA, DCM, 122.5 mM, 25.0 °C, 16.0 h), the ring closure, isolated yield turned out to be 59%.
For the compound `CC(C)[Si](Oc1cc2cc(c1)-c1ccc3c(C#N)cn(c3c1)CC(C)(C)CNC(=O)[C@@H]1CCCN(N1)C(=O)[C@@H](NC(=O)OC(C)(C)C)C2)(C(C)C)C(C)C`, the ring closure, isolated yield in data set [1] (from CC(C)[Si](Oc1cc(C[C@H](NC(=O)OC(C)(C)C)C(=O)N2CCC[C@@H](C(=O)NCC(C)(C)Cn3cc(C#N)c4ccc(Br)cc43)N2)cc(B2OC(C)(C)C(C)(C)O2)c1)(C(C)C)C(C)C, cc_pd bond, Pd(dppf)Cl2.CH2Cl2/K2CO3, dioxane/H2O 5:1, 22.9 mM, 80.0 °C, 2.0 h) was 53%.
Regarding `CC(C)[C@@H](C(=O)N[C@H]1Cc2cc(O)cc(c2)-c2ccc3nc(-c4cccnc4)n(c3c2)CCCOC(=O)[C@@H]2CCCN(N2)C1=O)N(C)C(=O)C1CN(C(=O)CCl)C1` [Compound 169], the IC50 (on BRAF-GTP-KRASWT complex; in data set [2]) was over 30 µM each time. Besides, at KRAS-G12C, the “% Crosslinking with KRAS-G12C-GTP in presence of CYPA” value is 39^‡ %. This compound returned an EC50 in data set [3] of 500 to 5000 nM. Besides, the Kd on cyclophilin A (CYPA) was at most 5 µM.
Turning to `C=CC(=O)N1CCC(C(=O)N(C)C(C(=O)NC2Cc3cc(O)cc(c3)-c3ccc4c(c3)N(CC(C)(C)COC(=O)C3CCCN(N3)C2=O)CC4(C)COC)C2CCCC2)C1` (stereo not shown) [Compound 398], the IC50 in the data set with pERK in H358 cells is at most 1000 nM. The same compound displayed an EC50 in data set [3] of 500 to 5000 nM. The Kd on cyclophilin A (CYPA) is at most 5 µM.
For `C=CC(=O)N1CCC(C(=O)N(C)C(C(=O)NC2Cc3cc(O)cc(c3)-c3ccc4c(c3)c(c(C#N)n4CCOC)CC(C)(C)COC(=O)C3CCCN(N3)C2=O)C(C)C)C1` (stereo not shown) [Compound 400] the same measures were 1000 to 10000 nM, at most 500 nM and 5 to 15 µM.
For `C=CC(=O)N1CCC(C(=O)N(C)C(C(=O)NC2Cc3cc(O)cc(c3)-c3ccc4c(c3)N(CC(C)(C)COC(=O)C3CCCN(N3)C2=O)CC4(C=CC#N)COC)C(C)C)C1` (stereo not shown) [Compound 404] the same measures were 1000 to 10000 nM, at most 500 nM and over 15 µM.
For `C=CC(=O)N1CCC(C(=O)N(C)C(C(=O)NC2Cc3cc(O)cc(c3)-c3ccc4c(c3)c(cn4C(C#N)(CC)CC)CC(C)(C)COC(=O)C3CCCN(N3)C2=O)C(C)CC)C1` (stereo not shown) [Compound 405] the same measures were at most 1000 nM, 500 to 5000 nM and 5 to 15 µM.
